According to PubChem BioAssay (NCI):
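Growth conditions: 96-well plates. Treatment: test compound, 48 hours, 5 concentrations. Analysis: linear interpolation between bracketing concentrations; unreached endpoints set to highest concentration. The concentration for full growth arrest is given as TGI.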

What was measured:
Assay in all cases: DTP human tumour cell line panel, 48 h
[1] = system: 786-0 renal
[2] = system: A549 NSCLC
[3] = system: ACHN renal
[4] = system: BT-549 breast
[5] = system: CAKI-1 renal
[6] = system: CCRF-CEM leukemia
[7] = system: COLO 205 colon
[8] = system: DU-145 prostate
[9] = system: EKVX NSCLC
[10] = system: HCC-2998 colon
[11] = system: HCT-116 colon
[12] = system: HCT-15 colon
[13] = system: HL-60(TB) leukemia
[14] = system: HOP-62 NSCLC
[15] = system: HOP-92 NSCLC
[16] = system: HS 578T breast
[17] = system: HT29 colon
[18] = system: IGROV1 ovarian
[19] = system: K-562 leukemia
[20] = system: KM12 colon
[21] = system: LOX IMVI melanoma
[22] = system: M14 melanoma
[23] = system: MALME-3M melanoma
[24] = system: MCF7 breast
[25] = system: MDA-MB-231 breast
[26] = system: MDA-MB-435
[27] = system: MDA-N
[28] = system: MOLT-4 leukemia
[29] = system: NCI-H226 lung
[30] = system: NCI-H23 lung
[31] = system: NCI-H460 lung
[32] = system: NCI-H522 lung
[33] = system: NCI/ADR-RES ovarian
[34] = system: OVCAR-3 ovarian
[35] = system: OVCAR-4 ovarian
[36] = system: OVCAR-5 ovarian
[37] = system: OVCAR-8 ovarian
[38] = system: PC-3 prostate
[39] = system: RPMI-8226 leukemia
[40] = system: RXF 393 renal
[41] = system: SF-268 CNS
[42] = system: SF-295 CNS
[43] = system: SF-539 CNS
[44] = system: SK-MEL-2 melanoma
[45] = system: SK-MEL-28 melanoma
[46] = system: SK-MEL-5 melanoma
[47] = system: SK-OV-3 ovarian
[48] = system: SN12C renal
[49] = system: SNB-19 CNS
[50] = system: SNB-75 CNS
[51] = system: SR leukemia
[52] = system: SW-620 colon
[53] = system: T-47D breast
[54] = system: TK-10 renal
[55] = system: U251 CNS
[56] = system: UACC-257 melanoma
[57] = system: UACC-62 melanoma
[58] = system: UO-31 renal
[59] = system: A498 renal

What does the source list for O=C(O)CCCN=C(C1=C(O)C(=O)N(c2ccccc2)C1=O)c1ccccc1?
TGI [1]: > 100 µM; TGI [2]: > 100 µM; TGI [3]: > 100 µM; TGI [4]: > 100 µM; TGI [5]: > 100 µM; TGI [6]: > 100 µM; TGI [7]: > 100 µM; TGI [8]: > 100 µM; TGI [9]: > 100 µM; TGI [10]: > 100 µM; TGI [11]: > 100 µM; TGI [12]: > 100 µM; TGI [13]: > 100 µM; TGI [14]: > 100 µM; TGI [15]: > 100 µM; TGI [16]: > 100 µM; TGI [17]: > 100 µM; TGI [18]: > 100 µM; TGI [19]: > 100 µM; TGI [20]: > 100 µM; TGI [21]: > 100 µM; TGI [22]: > 100 µM; TGI [23]: > 100 µM; TGI [24]: > 100 µM; TGI [25]: > 100 µM; TGI [26]: > 100 µM; TGI [27]: > 100 µM; TGI [28]: > 100 µM; TGI [29]: > 100 µM; TGI [30]: > 100 µM; TGI [31]: > 100 µM; TGI [32]: > 100 µM; TGI [33]: > 100 µM; TGI [34]: > 100 µM; TGI [35]: > 100 µM; TGI [36]: > 100 µM; TGI [37]: > 100 µM; TGI [38]: > 100 µM; TGI [39]: > 100 µM; TGI [40]: > 100 µM; TGI [41]: > 100 µM; TGI [42]: > 100 µM; TGI [43]: > 100 µM; TGI [44]: > 100 µM; TGI [45]: > 100 µM; TGI [46]: > 100 µM; TGI [47]: > 100 µM; TGI [48]: > 100 µM; TGI [49]: > 100 µM; TGI [50]: > 100 µM; TGI [51]: 64.9 µM; TGI [52]: > 100 µM; TGI [53]: > 100 µM; TGI [54]: > 100 µM; TGI [55]: > 100 µM; TGI [56]: > 100 µM; TGI [57]: > 100 µM; TGI [58]: > 100 µM

What does the source list for COc1ccc(OC)c(/C=C/c2ccnc3ccccc23)c1?
TGI [1]: 15.4 µM; TGI [59]: 3.8 µM; TGI [2]: 14.7 µM; TGI [3]: 18.8 µM; TGI [4]: 14.4 µM; TGI [5]: 18.1 µM; TGI [6]: 5.91 µM; TGI [7]: 0.863 µM; TGI [8]: 13.1 µM; TGI [9]: 10.7 µM; TGI [10]: 12.9 µM; TGI [11]: 8.09 µM; TGI [12]: 17.3 µM; TGI [13]: 0.977 µM; TGI [14]: 18 µM; TGI [15]: 18.1 µM; TGI [16]: 5.72 µM; TGI [17]: 2.35 µM; TGI [18]: 17.4 µM; TGI [19]: 2.06 µM; TGI [20]: 11.5 µM; TGI [21]: 14.4 µM; TGI [22]: 17.8 µM; TGI [23]: 21.5 µM; TGI [24]: 17.4 µM; TGI [25]: 9.44 µM; TGI [26]: 0.331 µM; TGI [27]: 0.286 µM; TGI [28]: 16.2 µM; TGI [29]: 4.74 µM; TGI [30]: 5.72 µM; TGI [31]: 12.3 µM; TGI [32]: 1.79 µM; TGI [33]: 1.56 µM; TGI [34]: 1.76 µM; TGI [35]: 19.6 µM; TGI [36]: 16 µM; TGI [37]: 1.88 µM; TGI [38]: 6.76 µM; TGI [39]: 26.3 µM; TGI [40]: 2.72 µM; TGI [41]: 18.2 µM; TGI [42]: 4.89 µM; TGI [43]: 0.671 µM; TGI [45]: 20.5 µM; TGI [46]: 12.9 µM; TGI [47]: 5.1 µM; TGI [48]: 17.6 µM; TGI [49]: 13.2 µM; TGI [50]: 0.977 µM; TGI [51]: 8.07 µM; TGI [52]: 16.2 µM; TGI [53]: 29.5 µM; TGI [54]: 16 µM; TGI [55]: 5.66 µM; TGI [56]: 18.8 µM; TGI [57]: 7.59 µM; TGI [58]: 6.99 µM
